Laboratory results taken from ChEMBL document CHEMBL1201862, “PubChem BioAssay data set” (2004).
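These data come from cells grown in 96-well plates and exposed to compound for 48 hours at five concentrations. The concentration for 50% growth inhibition is given as GI50.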 Active and inactive are the calls of the source. No stated cut-off is given here; in the data, active = GI50 up to about 1.1 µM and inactive = higher.

How the values were obtained:
Test in all cases: NCI tumour cell line growth inhibition, 48 h
BT-549 = test system: BT-549
T47D = test system: T47D
MDA-MB-231 = test system: MDA-MB-231
LXFL 529 = test system: LXFL 529
SR = test system: SR
DLD-1 = test system: DLD-1
Hs-578T = test system: Hs-578T

SMILES | GI50 (BT-549) | GI50 (T47D) | GI50 (MDA-MB-231) | GI50 (LXFL 529) | GI50 (SR) | GI50 (DLD-1) | GI50 (Hs-578T)
CCCCN(CCCC)c1ccc(/N=N/c2ccc(S(=O)(=O)O)cc2)cc1 | 35.2 µM (inactive) | 25.5 µM (inactive) | 25.4 µM (inactive) | – | – | – | –
O=C(NN1C(=O)CS(=O)(=O)C1c1ccc(C(F)(F)F)cc1)c1ccncc1 (stereo not given) | – | – | – | > 100 µM (inactive) | > 100 µM (inactive) | > 100 µM (inactive) | –
CC1(C)N/C(=C\C=O)C(C)(C)N1O | – | – | > 100 µM (inactive) | – | > 100 µM (inactive) | – | > 100 µM (inactive)
O=C(OC(=O)n1ccc2ccccc21)n1ccc2ccccc21 | – | – | – | – | – | > 100 µM (inactive) | –
COc1cc2c(cc1OC)C(Cc1c3ccccc3cc3ccccc13)N(C)CC2 (stereo not given) | – | – | – | – | – | 32.1 µM (inactive) | –
COc1ccc(-c2c(C#N)c(NC(=S)NC(=O)c3ccccc3)nc3c2CCCC3)cc1OC | > 100 µM (inactive) | 14.9 µM (inactive) | 34.7 µM (inactive) | – | 59.2 µM (inactive) | – | 33.3 µM (inactive)
CC1(C)CCc2ccc(OCCC(=O)O)cc2O1 | – | – | – | > 100 µM (inactive) | > 100 µM (inactive) | > 100 µM (inactive) | –
CCOC(=O)/C(O)=C1\C(=O)N(C)C(=O)C1c1ccc(OC)c(OC)c1 (stereo not given) | – | – | – | – | – | > 100 µM (inactive) | –
